Experimental data as given in patent US12251374B2, “Fampridine TTS” (LTS Lohmann Therapie-Systeme AG, priority 2017, dated 2025).

Tests used:
[1] = Solubility of fampridine base in organic solvents; format: physicochemical
Method: Since toluene polysiloxane solution is not commercially obtainable, BIO PSA 4201 from Dow Chemicals (polysiloxane in n-heptane) was used as starting material. The solvent was evaporated and the rubber-like polymer residue was dissolved with so much toluene that a solution with approximately 75% solids was obtained.

[2] = Saturation concentration Cs of fampridine in polymer matrices ("sandwich" method by Liu); format: physicochemical; conditions: for Cs of fampridine: 7 days at room temperature
Method: The saturation concentration Cs of […] determined in various polymer matrices by the method described by Liu. (Liu, P., Gargiulo, P., Wong, J., and Novartis (1997). A Novel Method for Measuring Solubility of a Drug in an Adhesive, Pharmaceutical Research 14, page 317). In this method, known by specialists as the “sandwich” method, the saturation concentration is determined as follows: A laminate is constructed, having the following layer sequence: protective film-donor layer with active ingredient (dissolved and undissolved)-active ingredient-permeable membrane-acceptor layer without active ingredient-protective film. The two protective films are made of identical material; the matrix material of the donor and of the acceptor layer is likewise identical. The donor layer is produced by dissolving the active ingredient in a solution of the polymer in organic solvent. The concentration of the active ingredient must be selected to be high enough that an undissolved residue can be identified in the polymer matrix so that the saturation concentration Cs in the donor layer is reliably exceeded. This solution is applied to the protective film, and the process solvent is evaporated. The adhesive surface of the donor layer is then covered with the membrane. A dialysis tube made of regenerated cellulose (ZelluTrans®, from Roth, 46 mm flat width) that has been cut to size in the longitudinal direction is used as membrane. The acceptor layer is produced without active ingredient, similarly to the donor layer, and the membrane is applied to the other side. The laminates thus produced are then stored for 7 days at room temperature, during which time the active ingredient diffuses through the membrane into the acceptor layer. The active ingredient concentration in the […] is then determined. To this end, aliquots of approximately 1 cm^2 are punched out using a punching tool of standardised area. The membrane is then removed, the punched blanks without membrane are weighed, and their weight is recorded (m1). The punched blanks are then placed in organic solvent so as to remove the matrices. The backing layers are removed, washed, and dried, and their weight (m2) is determined. […] The concentration of […] solution is then calculated using an HPLC method, and its concentration in the […] is calculated. The saturation concentrations of […] different polymer matrices determined on the basis of this test approach are summarised in Table 1: […]

Q: What does the source list for `Nc1ccncc1` [fampridine, 4-aminopyridine]?
A: Solubility ([1]; in aromatic hydrocarbons): sufficiently soluble; Solubility ([1]; in n-heptane): not; saturation concentration Cs relative to neutral polymers ([2]; in acidic polymers vs neutral polymers): approximately 3 times higher; Cs of fampridine ([2]; in acrylate copolymer of 2-ethylhexylacrylate, butyl acrylate, vinyl acetate, acrylic acid, ethyl acetate): 7.4%; Cs of fampridine ([2]; in acrylate copolymer of 2-ethylhexylacrylate, vinyl acetate and 2-hydroxyethyl acrylate, ethyl acetate): 3.3%; saturation concentration Cs of fampridine ([2]; in neutral polymers (summary of Table 1)): approximately 3%; Cs of fampridine ([2]; in polyisobutylene, polymer dissolved in toluene): 2.2%; Cs of fampridine (in words) ([2]; in polysiloxane): especially low; Cs of fampridine ([2]; in polysiloxane, ethyl acetate): 0.3%; Cs of fampridine ([2]; in styrene-isoprene-styrene block copolymer, polymer dissolved in toluene): 2.7%
